For the assay, the target named is Cannabinoid receptor 1 (Homo sapiens, UniProt P21554). Briefly: cAMP Assay: CHO cells expressing human CB1 or CB2 receptors are seeded 17-24 hours prior to the experiment 50.000 cells per well in a black 96 well plate with flat clear bottom (Corning Costar #3904) in DMEM (Invitrogen No. 31331), 1×HT supplement, with 10% fetal calf serum and incubated at 5% CO2 and 37° C. in a humidified incubator. The growth medium was exchanged with Krebs Ringer Bicarbonate buffer with 1 mM IBMX and incubated at 30° C. for 30 min Compounds were added to a final assay volume of 100 ul and incubated for 30 min at 30° C. Using the cAMP-Nano-TRF detection kit the assay (Roche Diagnostics) was stopped by the addition of 50 ul lysis reagent (Tris, NaCl, 1.5% Triton X100, 2.5% NP40, 10% NaN3) and 50 ul detection solutions (20 uM mAb Alexa700-cAMP 1:1, and 48 uM Ruthenium-2-AHA-cAMP) and shaken for 2 h at room temperature. The time-resolved energy transfer is measured by a TRF reader (Evotec Technologies GmbH), equipped with a ND:YAG laser as excitation source. The plate is measured twice with the excitation at 355 nm and at the emission with a delay of 100 ns and a gate of 100 ns, total exposure time 10 s at 730 (bandwidth 30 nm) or 645 nm (bandwidth 75 nm), respectively. The FRET signal is calculated. The class given is functional, cell-based.
Sequence of Cannabinoid receptor 1 (P21554 whole entry): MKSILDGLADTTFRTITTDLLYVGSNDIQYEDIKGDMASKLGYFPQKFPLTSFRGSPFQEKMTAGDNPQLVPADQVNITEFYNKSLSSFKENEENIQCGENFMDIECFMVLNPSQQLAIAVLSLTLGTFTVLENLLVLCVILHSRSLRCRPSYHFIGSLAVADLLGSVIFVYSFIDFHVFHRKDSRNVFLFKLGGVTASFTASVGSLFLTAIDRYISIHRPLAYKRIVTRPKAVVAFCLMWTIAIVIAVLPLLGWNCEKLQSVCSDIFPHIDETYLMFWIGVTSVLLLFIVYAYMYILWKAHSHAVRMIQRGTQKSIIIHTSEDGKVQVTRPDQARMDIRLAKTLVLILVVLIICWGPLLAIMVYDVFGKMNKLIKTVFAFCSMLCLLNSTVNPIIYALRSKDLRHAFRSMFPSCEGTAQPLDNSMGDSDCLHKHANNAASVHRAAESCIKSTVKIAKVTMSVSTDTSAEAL

We go through 1 compound from ChEMBL document CHEMBL3886568, “Pyridine derivatives as agonists of the CB2 receptor” (2016).

pEC50: −log10 of the molar value. Where only a bound is given, the exact number is not on record here.

By pEC50 is commonly meant −log10 of the EC50, conventionally taken in molar units. With `O=C(N[C@@H](CC1CC1)C(=O)NC1CCC(O)C1)c1ccc(C2CC2)c(OCC2CC2)n1` (stereo partly specified), the negative logarithm of the EC50 (pEC50) was less than 5.00.
